In ChEMBL document CHEMBL6087488, “Development of the First-in-Class FEM1B-Recruiting Histone Deacetylase Degraders” (J Med Chem, 2025):
One block for each compound: values may come before it. Active and inactive are the calls of the source. No cut-off for these calls is given here.

Assays:
MM1.S [1] = assay: Antiproliferative activity against human MM1.S cells assessed as cell viability up to 50 uM measured after 72 hrs by CellTiter-Glo cell viability assay; assay type: functional, cell-based
MV4-11 = assay: Antiproliferative activity against human MV4-11 cells assessed as cell viability measured after 72 hrs incubation by MTT assay; assay type: functional, cell-based; settings: MV4-11, 72 h
MDA-MB-231 [2] = assay: Antiproliferative activity against human MDA-MB-231 cells assessed as cell viability up to 50 uM measured after 72 hrs incubation by MTT assay relative to control; assay type: functional
U-87 MG [3] = assay: Antiproliferative activity against human U-87 MG cells assessed as cell viability up to 50 uM measured after 72 hrs incubation by MTT assay relative to control; assay type: functional, U-87MG ATCC
MM1.S [4] = assay: Induction of cell cycle arrest in human MM1.S cells assessed as reduction in cells at […] phase at 10 uM measured after 48 hrs by propidium iodide based flow cytometry; assay type: functional
MM1.S [5] = assay: Induction of cell cycle arrest in human MM1.s cells assessed as increase in cells at Sub-G1 phase at 10 uM measured after 48 hrs by propidium iodide based flow cytometry; assay type: functional
MM1.S [6] = assay: Induction of apoptosis in human MM1.S cells assessed as increase in early apoptotic cells at 10 uM measured after 48 hrs by annexin V-FITC/PI staining based assay; assay type: functional, cell-based
MM1.S [7] = assay: Induction of apoptosis in human MM1.S cells assessed as increase in late apoptotic cells at 10 uM measured after 48 hrs by annexin V-FITC/PI staining based assay; assay type: functional, cell-based
MM1.S [8] = assay: Antiproliferative activity against human MM1.S cells assessed as cell viability up to 50 uM measured after 72 hrs incubation by MTT assay; assay type: functional
MM1.S [9] = assay: Antiproliferative activity against human MM1.S cells assessed as cell viability measured after 72 hrs by CellTiter-Glo cell viability assay; assay type: functional, cell-based; settings: Homo sapiens, MM1.S, 72 h
[10] = target: T1, Protein fem-1 homolog B/Histone deacetylase 1 (Homo sapiens, UniProt Q13547+Q9UK73); assay: PROTAC activity at FEM1B/HDAC1 in human MM1.S cell lysate assessed as initial degradation at 1 uM measured after 24 hrs by Western immunoassay; assay type: subcellular
Target sequence in this assay (Q13547 whole entry, looked up): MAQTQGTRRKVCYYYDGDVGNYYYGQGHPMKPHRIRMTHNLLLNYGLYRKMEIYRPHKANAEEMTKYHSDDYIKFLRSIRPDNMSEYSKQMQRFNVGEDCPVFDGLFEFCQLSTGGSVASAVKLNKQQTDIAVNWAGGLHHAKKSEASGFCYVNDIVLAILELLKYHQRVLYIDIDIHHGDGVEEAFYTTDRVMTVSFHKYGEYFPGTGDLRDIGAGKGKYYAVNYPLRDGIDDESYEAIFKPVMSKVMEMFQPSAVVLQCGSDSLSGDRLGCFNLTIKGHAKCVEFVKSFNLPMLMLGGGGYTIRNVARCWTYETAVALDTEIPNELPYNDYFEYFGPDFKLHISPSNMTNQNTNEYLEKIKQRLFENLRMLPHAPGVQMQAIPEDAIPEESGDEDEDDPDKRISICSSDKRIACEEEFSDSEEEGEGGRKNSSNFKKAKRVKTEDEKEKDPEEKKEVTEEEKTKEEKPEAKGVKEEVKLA
Target sequence in this assay (Q9UK73 whole entry, looked up): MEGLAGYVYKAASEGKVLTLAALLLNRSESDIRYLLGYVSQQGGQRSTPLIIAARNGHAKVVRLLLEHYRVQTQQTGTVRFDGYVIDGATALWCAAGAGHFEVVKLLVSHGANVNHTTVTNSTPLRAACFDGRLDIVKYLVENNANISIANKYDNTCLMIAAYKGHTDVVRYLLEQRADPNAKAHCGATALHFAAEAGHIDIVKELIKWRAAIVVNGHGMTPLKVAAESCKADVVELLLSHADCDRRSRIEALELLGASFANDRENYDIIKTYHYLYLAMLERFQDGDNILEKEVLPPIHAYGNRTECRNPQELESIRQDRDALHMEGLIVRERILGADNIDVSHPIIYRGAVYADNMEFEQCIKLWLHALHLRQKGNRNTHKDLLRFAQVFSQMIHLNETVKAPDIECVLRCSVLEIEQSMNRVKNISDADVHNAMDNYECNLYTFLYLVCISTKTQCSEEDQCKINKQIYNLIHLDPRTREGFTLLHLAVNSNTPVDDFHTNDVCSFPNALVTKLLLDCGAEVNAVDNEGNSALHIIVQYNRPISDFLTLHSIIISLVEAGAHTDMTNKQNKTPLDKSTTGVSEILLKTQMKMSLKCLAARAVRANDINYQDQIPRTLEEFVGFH

[11] = target: T1, Protein fem-1 homolog B/Histone deacetylase 1; assay: PROTAC activity at FEM1B/HDAC1 in human MM1.S cell lysate assessed as initial degradation measured after 24 hrs by Western immunoassay; assay type: subcellular
Target sequence in this assay (Q13547 whole entry): as the sequence (Q13547 whole entry, looked up) above
Target sequence in this assay (Q9UK73 whole entry): as the sequence (Q9UK73 whole entry, looked up) above

[12] = target: T1, Protein fem-1 homolog B/Histone deacetylase 1; assay: PROTAC activity at FEM1B/HDAC1 in human MM.1S cell lysate assessed as maximal initial degradation at measured after 24 hrs by Western immunoassay relative to control; assay type: subcellular; settings: MM1.S
Target sequence in this assay (Q13547 whole entry, looked up): as the sequence (Q13547 whole entry, looked up) above
Target sequence in this assay (Q9UK73 whole entry, looked up): as the sequence (Q9UK73 whole entry, looked up) above

Histone deacetylase 1 = Histone deacetylase 1 (Homo sapiens, UniProt Q13547); assay: Inhibition of human recombinant HDAC1 using ZMAL (Z-(Ac)Lys-AMC) as substrate incubated for 90 mins by fluorescence based assay
Histone deacetylase 2 = Histone deacetylase 2 (Homo sapiens, UniProt Q92769); assay: Inhibition of human HDAC2 using ZMAL (Z-(Ac)Lys-AMC) as substrate incubated for 90 mins by fluorescence based assay
Histone deacetylase 4 = Histone deacetylase 4 (Homo sapiens, UniProt P56524); assay: Inhibition of human HDAC4 using Boc-Lys(Tfa)-AMC as substrate incubated for 90 mins by fluorescence based assay
[13] = target: T2, Protein deacetylase HDAC6 (Homo sapiens, UniProt Q9UBN7); assay: Inhibition of human HDAC6 using ZMAL (Z-(Ac)Lys-AMC) as substrate incubated for 90 mins by fluorescence based assay
T2 sequence (Q9UBN7 whole entry): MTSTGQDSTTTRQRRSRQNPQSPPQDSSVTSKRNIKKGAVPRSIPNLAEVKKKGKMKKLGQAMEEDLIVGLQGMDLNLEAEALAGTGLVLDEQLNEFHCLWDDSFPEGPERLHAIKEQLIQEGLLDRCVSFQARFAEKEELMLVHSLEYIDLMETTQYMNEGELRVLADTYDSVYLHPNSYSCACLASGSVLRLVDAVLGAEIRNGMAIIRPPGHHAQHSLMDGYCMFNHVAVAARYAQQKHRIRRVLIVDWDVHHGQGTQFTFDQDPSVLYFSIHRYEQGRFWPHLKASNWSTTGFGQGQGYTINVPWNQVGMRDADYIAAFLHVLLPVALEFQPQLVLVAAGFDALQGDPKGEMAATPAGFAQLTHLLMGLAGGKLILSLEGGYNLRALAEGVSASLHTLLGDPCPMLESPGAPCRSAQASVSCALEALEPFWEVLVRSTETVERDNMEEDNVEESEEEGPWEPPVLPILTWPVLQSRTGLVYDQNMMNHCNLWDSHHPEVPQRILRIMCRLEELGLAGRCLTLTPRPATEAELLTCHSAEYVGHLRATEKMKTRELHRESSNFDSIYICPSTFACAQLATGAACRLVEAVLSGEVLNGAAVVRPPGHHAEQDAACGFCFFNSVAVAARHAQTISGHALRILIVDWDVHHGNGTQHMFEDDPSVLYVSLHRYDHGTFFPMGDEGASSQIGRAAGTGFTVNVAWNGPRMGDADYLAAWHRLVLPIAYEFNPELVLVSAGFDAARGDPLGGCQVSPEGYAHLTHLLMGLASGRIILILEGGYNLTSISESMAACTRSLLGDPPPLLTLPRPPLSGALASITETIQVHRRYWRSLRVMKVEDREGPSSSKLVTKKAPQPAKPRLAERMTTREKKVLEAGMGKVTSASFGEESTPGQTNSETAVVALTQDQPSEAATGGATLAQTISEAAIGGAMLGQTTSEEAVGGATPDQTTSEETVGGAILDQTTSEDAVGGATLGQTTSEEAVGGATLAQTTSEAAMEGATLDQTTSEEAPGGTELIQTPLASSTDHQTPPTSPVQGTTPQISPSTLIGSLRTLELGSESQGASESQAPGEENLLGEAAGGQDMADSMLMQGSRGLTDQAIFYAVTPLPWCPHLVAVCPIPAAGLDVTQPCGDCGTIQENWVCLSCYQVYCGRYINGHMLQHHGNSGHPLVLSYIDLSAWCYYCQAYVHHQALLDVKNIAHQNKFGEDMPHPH

[14] = target: T1, Protein fem-1 homolog B/Histone deacetylase 1; assay: PROTAC activity at FEM1B/HDAC1 in human MM1.S cell lysate assessed as protein degradation at 1 uM measured after 24 hrs by Western immunoassay; assay type: subcellular
Target sequence in this assay (Q13547 whole entry, looked up): as the sequence (Q13547 whole entry, looked up) above
Target sequence in this assay (Q9UK73 whole entry, looked up): as the sequence (Q9UK73 whole entry, looked up) above

[15] = target: Protein fem-1 homolog B/Histone deacetylase 2 (Homo sapiens) (UniProt Q92769+Q9UK73); assay: PROTAC activity at FEM1B/HDAC2 in human MM1.S cell lysate assessed as protein degradation at 1 uM measured after 24 hrs by Western immunoassay; assay type: subcellular
[16] = target: Protein fem-1 homolog B/Histone deacetylase 3 (Homo sapiens) (UniProt O15379+Q9UK73); assay: PROTAC activity at FEM1B/HDAC3 in human MM1.S cell lysate assessed as protein degradation at 1 uM measured after 24 hrs by Western immunoassay; assay type: subcellular
[17] = target: Protein fem-1 homolog B/Protein deacetylase HDAC6 (Homo sapiens) (UniProt Q9UBN7+Q9UK73); assay: PROTAC activity at FEM1B/HDAC6 in human MM1.S cell lysate assessed as protein degradation at 1 uM measured after 24 hrs by Western immunoassay; assay type: subcellular
[18] = target: Protein fem-1 homolog B/Histone deacetylase 4 (Homo sapiens) (UniProt P56524+Q9UK73); assay: PROTAC activity at FEM1B/HDAC4 in human MM1.S cell lysate assessed as protein degradation at 1 uM measured after 24 hrs by Western immunoassay; assay type: subcellular
[19] = target: Protein fem-1 homolog B/Histone deacetylase 8 (Homo sapiens) (UniProt Q9BY41+Q9UK73); assay: PROTAC activity at FEM1B/HDAC8 in human MM1.S cell lysate assessed as protein degradation at 1 uM measured after 24 hrs by Western immunoassay; assay type: subcellular
MM1.S [20] = assay: Antiproliferative activity against human MM1.S cells assessed as cell viability measured after 72 hrs incubation by MTT assay; assay type: functional, cell-based
MDA-MB-231 [21] = assay: Antiproliferative activity against human MDA-MB-231 cells assessed as cell viability measured after 72 hrs incubation by MTT assay; assay type: functional, cell-based; settings: MDA-MB-231, 72 h
U-87 MG [22] = assay: Antiproliferative activity against human U-87 MG cells assessed as cell viability measured after 72 hrs incubation by MTT assay; assay type: functional, cell-based, U-87MG ATCC

Sequence of Histone deacetylase 4 (P56524 whole entry): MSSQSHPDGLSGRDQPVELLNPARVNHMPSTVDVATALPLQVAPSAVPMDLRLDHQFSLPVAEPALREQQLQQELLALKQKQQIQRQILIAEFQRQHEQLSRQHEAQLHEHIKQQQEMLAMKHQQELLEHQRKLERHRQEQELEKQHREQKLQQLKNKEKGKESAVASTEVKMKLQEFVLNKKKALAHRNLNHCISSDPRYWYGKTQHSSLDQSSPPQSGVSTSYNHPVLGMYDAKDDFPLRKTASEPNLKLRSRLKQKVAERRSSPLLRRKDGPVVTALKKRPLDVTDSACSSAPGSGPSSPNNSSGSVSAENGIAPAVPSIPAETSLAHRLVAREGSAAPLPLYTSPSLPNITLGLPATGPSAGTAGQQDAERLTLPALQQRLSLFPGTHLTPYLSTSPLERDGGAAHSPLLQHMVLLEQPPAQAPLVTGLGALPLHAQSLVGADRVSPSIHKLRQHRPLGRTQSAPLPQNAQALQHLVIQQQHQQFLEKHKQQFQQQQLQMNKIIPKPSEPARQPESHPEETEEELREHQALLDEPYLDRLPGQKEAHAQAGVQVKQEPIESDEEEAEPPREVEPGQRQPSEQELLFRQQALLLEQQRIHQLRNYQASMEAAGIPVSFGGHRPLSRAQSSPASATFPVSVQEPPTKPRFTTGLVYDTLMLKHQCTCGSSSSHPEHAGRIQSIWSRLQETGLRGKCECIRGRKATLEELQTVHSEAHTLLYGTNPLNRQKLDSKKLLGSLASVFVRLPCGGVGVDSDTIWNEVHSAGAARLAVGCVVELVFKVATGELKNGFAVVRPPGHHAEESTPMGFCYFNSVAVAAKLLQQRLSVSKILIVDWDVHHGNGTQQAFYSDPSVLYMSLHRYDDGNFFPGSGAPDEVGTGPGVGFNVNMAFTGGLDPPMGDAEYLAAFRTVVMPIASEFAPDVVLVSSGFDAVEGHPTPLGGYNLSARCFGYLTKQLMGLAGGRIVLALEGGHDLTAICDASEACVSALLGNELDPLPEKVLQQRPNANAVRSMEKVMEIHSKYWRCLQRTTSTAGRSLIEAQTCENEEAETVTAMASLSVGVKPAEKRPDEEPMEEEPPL
Sequence of Protein fem-1 homolog B/Histone deacetylase 8 (Homo sapiens) (Q9BY41 whole entry, looked up): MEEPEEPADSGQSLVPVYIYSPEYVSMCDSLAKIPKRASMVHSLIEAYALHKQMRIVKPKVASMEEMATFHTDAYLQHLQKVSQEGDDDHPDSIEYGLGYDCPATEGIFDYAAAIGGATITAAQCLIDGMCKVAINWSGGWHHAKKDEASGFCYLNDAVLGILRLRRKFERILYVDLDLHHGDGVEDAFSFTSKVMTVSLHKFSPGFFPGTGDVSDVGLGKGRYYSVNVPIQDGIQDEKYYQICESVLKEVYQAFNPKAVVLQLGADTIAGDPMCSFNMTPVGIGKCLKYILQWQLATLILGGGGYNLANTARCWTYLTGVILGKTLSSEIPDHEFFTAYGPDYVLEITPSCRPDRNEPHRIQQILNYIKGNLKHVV
Sequence of Protein fem-1 homolog B/Histone deacetylase 8 (Homo sapiens) (Q9UK73 whole entry, looked up): as the sequence (Q9UK73 whole entry, looked up) above
Sequence of Protein fem-1 homolog B/Histone deacetylase 3 (Homo sapiens) (O15379 whole entry, looked up): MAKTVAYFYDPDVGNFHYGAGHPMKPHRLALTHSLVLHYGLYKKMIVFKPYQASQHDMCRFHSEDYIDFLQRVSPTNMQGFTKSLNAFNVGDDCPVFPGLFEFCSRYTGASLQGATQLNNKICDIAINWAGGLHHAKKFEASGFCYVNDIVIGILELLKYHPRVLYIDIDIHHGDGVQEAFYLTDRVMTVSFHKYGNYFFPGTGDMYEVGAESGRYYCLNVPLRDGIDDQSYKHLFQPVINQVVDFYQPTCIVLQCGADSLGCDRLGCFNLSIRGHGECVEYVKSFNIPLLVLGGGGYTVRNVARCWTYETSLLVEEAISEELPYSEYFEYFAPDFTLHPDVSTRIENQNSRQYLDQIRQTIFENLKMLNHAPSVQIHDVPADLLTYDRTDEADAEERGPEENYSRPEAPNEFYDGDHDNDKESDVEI
Sequence of Protein fem-1 homolog B/Histone deacetylase 3 (Homo sapiens) (Q9UK73 whole entry, looked up): as the sequence (Q9UK73 whole entry, looked up) above
Sequence of Histone deacetylase 2 (Q92769 whole entry): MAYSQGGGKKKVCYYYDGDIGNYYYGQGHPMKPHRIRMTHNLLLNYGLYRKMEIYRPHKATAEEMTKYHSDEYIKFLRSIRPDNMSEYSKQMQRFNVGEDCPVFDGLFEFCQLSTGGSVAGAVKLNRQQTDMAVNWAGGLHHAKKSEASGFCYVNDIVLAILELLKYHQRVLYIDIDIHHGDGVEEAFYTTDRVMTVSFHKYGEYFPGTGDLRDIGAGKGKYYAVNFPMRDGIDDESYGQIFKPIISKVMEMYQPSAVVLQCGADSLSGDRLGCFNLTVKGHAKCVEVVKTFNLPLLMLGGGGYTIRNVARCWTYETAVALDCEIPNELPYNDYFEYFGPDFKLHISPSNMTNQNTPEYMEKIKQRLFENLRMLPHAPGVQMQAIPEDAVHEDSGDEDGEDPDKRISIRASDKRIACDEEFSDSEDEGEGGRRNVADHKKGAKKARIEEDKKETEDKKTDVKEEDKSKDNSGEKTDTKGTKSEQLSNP
Sequence of Protein fem-1 homolog B/Histone deacetylase 2 (Homo sapiens) (Q92769 whole entry, looked up): as the sequence (Q92769 whole entry) above
Sequence of Protein fem-1 homolog B/Histone deacetylase 2 (Homo sapiens) (Q9UK73 whole entry, looked up): as the sequence (Q9UK73 whole entry, looked up) above
Sequence of Histone deacetylase 1 (Q13547 whole entry): as the sequence (Q13547 whole entry, looked up) above
Sequence of Protein fem-1 homolog B/Protein deacetylase HDAC6 (Homo sapiens) (Q9UK73 whole entry, looked up, one chain of several): as the sequence (Q9UK73 whole entry, looked up) above
Sequence of Protein fem-1 homolog B/Histone deacetylase 4 (Homo sapiens) (P56524 whole entry, looked up): as the sequence (P56524 whole entry) above
Sequence of Protein fem-1 homolog B/Histone deacetylase 4 (Homo sapiens) (Q9UK73 whole entry, looked up): as the sequence (Q9UK73 whole entry, looked up) above

Compound: O=C(CCCCCCNC(=O)c1ccc(NC(=O)CCCCCCCNC(=O)COc2cccc3c2C(=O)N(C2CCC(=O)NC2=O)C3=O)cc1)NO (stereo unspecified)
Activity (MM1.S [1]): inactive | EC50 (MV4-11): 17.5 µM | Activity (MDA-MB-231 [2]): <=25% | Activity (U-87 MG [3]): <=25% | Activity (MM1.S [4]): inactive | Activity (MM1.S [5]): inactive | Activity (MM1.S [6]): inactive | Activity (MM1.S [7]): inactive | Activity (MM1.S [8]): <=25%

Compound: N#CCCN(C(=O)CCl)c1ccc2c(c1)OCCN2CC(=O)NC1CCC(C(=O)Nc2ccc(C(=O)NCCCCCCC(=O)NO)cc2)CC1 (stereo unspecified)
EC50 (MM1.S [9]): 7.75 µM

Compound: O=C(CCCCCCC(=O)Nc1ccccc1)NO [VORINOSTAT]
IC50 (Histone deacetylase 4): Not_active

More lines, main results first:

EC50 (MM1.S [9]): 26.7 µM
Compound: N#CCCN(C(=O)CCl)c1ccc2c(c1)OCCN2CC(=O)NCCOCCOCCC(=O)Nc1ccc(C(=O)NCCCCCCC(=O)NO)cc1

EC50 (MM1.S [9]): 35.2 µM
Compound: N#CCCN(C(=O)CCl)c1ccc2c(c1)OCCN2CC(=O)NCCOCCOCCOCCC(=O)Nc1ccc(C(=O)NCCCCCCC(=O)NO)cc1

EC50 (MM1.S [9]): 2.28 µM | Activity [10]: 52.8% | DC50 [11]: 0.228 µM | Emax [12]: 67.4% | IC50 (Histone deacetylase 1): 0.07 µM | IC50 (Histone deacetylase 2): 0.143 µM | IC50 (Histone deacetylase 4; read-out: IC50): 3.62 µM | IC50 [13]: 0.004 µM | Activity [14]: Active | Activity [15]: Active | Activity [16]: Active | Activity [17]: inactive | Activity [18]: inactive | Activity [19]: inactive | EC50 (MM1.S [20]): 2.28 µM | EC50 (MV4-11): 0.358 µM | EC50 (MDA-MB-231 [21]): 23.3 µM | EC50 (U-87 MG [22]): 49.7 µM
Compound: N#CCCN(C(=O)CCl)c1ccc2c(c1)OCCN2CC(=O)NCCCCCCCC(=O)Nc1ccc(C(=O)NCCCCCCC(=O)NO)cc1
Activity (MM1.S [4]): Active | Activity (MM1.S [5]): Active | Activity (MM1.S [6]): Active | Activity (MM1.S [7]): Active

EC50 (MM1.S [9]): 10.3 µM
Compound: N#CCCN(C(=O)CCl)c1ccc2c(c1)OCCN2CC(=O)NCCCC(=O)Nc1ccc(C(=O)NCCCCCCC(=O)NO)cc1
